Experimental data reported in US20250340590A1, “PEPTIDE HAVING ANTI-INFLAMMATORY ACTIVITY AND USE THEREOF” (CAREGEN CO., LTD., priority 2021, published 2025).

Legend:
Format in all cases: cell-based
IL-17 = IL-17 secretion by ELISA in mouse splenocytes induced with LPS, TGFβ and IL-23; conditions: LPS 2 μg/mL, TGFβ 20 ng/ml, IL-23 20 ng/mL, 24 hours
Description: (§1) Inflammation was induced by treating mouse splenocytes with LPS, which is an inflammation-inducing antigen, and TGFβ and IL-23, which are inflammatory cytokines, and the secretion amounts of the inflammatory cytokines IL-17, IL-1β, and IFNγ were confirmed. The descriptions of IL-17, IL-1B, and IFNγ are the same as above.
(§2) Mouse splenocytes were dispensed into a 24-well plate at a concentration of 1×10^7 cells/well and cultured until the next day. The medium was replaced with serum-free medium, and after 4 hours, the cells were treated with LPS, TGFβ, and IL-23 and the peptide of the present invention and then cultured again for another 24 hours. In order to induce inflammation, the cells were treated with LPS at 2 μg/mL, TGFβ at 20 ng/ml, IL-23 at 20 ng/mL, and the peptide at 5 μM and 50 μM, respectively. The mouse splenocytes in the group in which inflammation was not induced due to untreatment with LPS, TGFβ, and IL-23 (NON); the negative control group in which the cells were treated with LPS, TGFβ, and IL-23 but not treated with the peptide (NC); and the group in which the cells were treated with LPS, TGFβ, and IL-23 along with the peptide of the present invention at the same concentration as above, respectively, were reacted as described above and the cell cultures were recovered. […]

IL-1β [1] = assay: IL-1β secretion by ELISA in mouse splenocytes induced with LPS, TGFβ and IL-23; conditions: LPS 2 μg/mL, TGFβ 20 ng/ml, IL-23 20 ng/mL, 24 hours
Description: as §1, §2

IFNγ [2] = assay: IFNγ secretion by ELISA in LPS-induced mouse splenocytes; conditions: LPS 2 μg/mL, peptide at 5 μM and 50 μM, 24 hours
Description: Inflammation was induced in mouse splenocytes, and the secretion amounts of inflammatory cytokines TNFα, IL-1β, and IFNγ were confirmed. In order to induce inflammation, the cells were treated with an inflammation-inducing antigen, LPS, and since TNFα corresponds to a signaling protein associated with inflammation, IL-1β corresponds to a cytokine that promotes inflammation, and IFNγ also corresponds to a cytokine that promotes inflammation, the degree of inflammation can be confirmed by measuring the secretion amounts of TNFα, IL-1B, and IFNγ.
Mouse splenocytes were dispensed into a 24-well plate at a concentration of 1×10^7 cells/well and cultured until the next day. The medium was replaced with serum-free medium, and after 4 hours, the cells were treated with LPS and the peptide of the present invention and then cultured again for another 24 hours. In order to induce inflammation, the cells were treated with LPS at 2 μg/mL, and the peptide at 5 μM and 50 μM, respectively. […]

IFNγ [3] = assay: IFNγ secretion by ELISA in mouse splenocytes induced with LPS, TGFβ and IL-23; conditions: LPS 2 μg/mL, TGFβ 20 ng/ml, IL-23 20 ng/mL, 24 hours
Description: as §1, §2

IL-1β [4] = assay: IL-1β mRNA level by RT-PCR in TNFα-induced mouse splenocytes; conditions: TNFα 20 nM, peptide at 5 μM and 50 μM, 3 hours, compared to group not treated with the peptide
Description: In order to further confirm the anti-inflammatory effect of the peptide treatment of the present invention in addition to the results of Experimental Example <3-1>, inflammation was induced by treating mouse splenocytes with TNFα, and the expression levels of inflammatory cytokines TNFα and IL-1β, and Cox2, which is an inflammation-inducing marker, genes were confirmed. In order to induce inflammation, the cells were treated with cytokine TNFα, and since TNFα corresponds to a signaling protein associated with inflammation, IL-1β corresponds to a cytokine that promotes inflammation, and Cox2 is a protein associated with inflammation, the degree of inflammation can be confirmed by measuring the expression levels of TNFα, Cox2, and IL-1β genes.
Mouse splenocytes were dispensed into a 24-well plate at a concentration of 1× 10^7 cells/well and cultured until the next day. The medium was replaced with serum-free medium, and after 3 hours, the cells were treated with TNFα and the peptide of the present invention and then cultured for another 3 hours. In order to induce inflammation, the cells were treated with TNFα at 20 nM, and the peptide at 5 μM and 50 μM, respectively. […] After quantifying the amount of isolated RNA, cDNA was synthesized using a cDNA synthesis kit (Intron, Korea), PCR was performed using a PCR premix (Intron, Korea) and primers for TNFα, Cox2, and IL-1B. […]

TWNS [peptide of the present invention]
decreased: secretion amount of IL-17 (IL-17; peptide at 50 μM) | secretion amount of IL-1β (IL-1β [1]; peptide at 5 μM) | secretion amount of IL-1β (IL-1β [1]; peptide at 50 μM) | secretion amount of IFNγ (IFNγ [2]) | secretion amount of IFNγ (IFNγ [3]; peptide at 5 μM) | secretion amount of IFNγ (IFNγ [3]; peptide at 50 μM) | mRNA expression level of IL-1β (IL-1β [4])
slightly increased: secretion amount of IL-17 (IL-17; peptide at 5 μM)
